For eight molecules, TGI results are on record in PubChem BioAssay (NCI).

Test systems include SK-MEL-2 melanoma; OVCAR-3 ovarian; ACHN renal; LOX IMVI melanoma; HT29 colon; HS 578T breast; SF-539 CNS; U251 CNS; NCI/ADR-RES ovarian; DU-145 prostate; COLO 205 colon; BT-549 breast; OVCAR-8 ovarian; SK-MEL-28 melanoma; CAKI-1 renal; RPMI-8226 leukemia; CCRF-CEM leukemia; HCT-15 colon.
Experiment in all cases: growth of human tumour cells (NCI), 48 h

Molecules are shown by their SMILES.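 Step 1: Grow cells in 96-well plates. Step 2: Expose to compound for 48 hours at 5 concentrations. Step 3: Interpolate endpoints linearly; if unreached, use highest concentration. At the TGI there is no net growth.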

Turning to `CCOC(=O)/C(C#N)=C/c1ccc2c(c1)CC1(C2)Cc2cc(CC)c(C(C)O)cc2C1` (configuration not stated), the TGI with SK-MEL-2 melanoma was 27.2 µM; in the experiment on OVCAR-3 ovarian, 22.4 µM; with ACHN renal it was over 85.1 µM; in the experiment with LOX IMVI melanoma, 22 µM; in the experiment with HT29 colon it was 39.5 µM; in the experiment with HS 578T breast it was 60.8 µM. In addition, the TGI with SF-539 CNS came to 22.1 µM; in the experiment with U251 CNS, 20.3 µM; with NCI/ADR-RES ovarian, 55.9 µM; with DU-145 prostate it was 56.1 µM; in the experiment with COLO 205 colon it was 66.2 µM; with BT-549 breast it was 23.4 µM. For the same molecule, the TGI is 44.4 µM in the experiment on OVCAR-8 ovarian; 38.9 µM in the experiment with SK-MEL-28 melanoma; over 100 µM in the experiment with CAKI-1 renal; 51.6 µM in the experiment with RPMI-8226 leukemia; 27.2 µM in the experiment with CCRF-CEM leukemia; 20 µM in the experiment on HCT-15 colon.
Take `Cc1cc2c(cc1Cl)SC(NNc1ccc([N+](=O)[O-])cc1)=NS2(=O)=O`: the TGI in the experiment with SK-MEL-2 melanoma, in the experiment with OVCAR-3 ovarian, with ACHN renal, in the experiment with LOX IMVI melanoma, in the experiment on HT29 colon and in the experiment on HS 578T breast was over 10 µM throughout. Moreover, the TGI with SF-539 CNS, in the experiment on U251 CNS, with NCI/ADR-RES ovarian, in the experiment with DU-145 prostate, with COLO 205 colon and with BT-549 breast was over 10 µM throughout. Besides, the TGI in the experiment with OVCAR-8 ovarian, in the experiment on SK-MEL-28 melanoma, in the experiment on CAKI-1 renal, with RPMI-8226 leukemia, in the experiment with CCRF-CEM leukemia and in the experiment on HCT-15 colon was over 10 µM each time.
Take `Cc1c(C)c(S(=O)(=O)N(CCCCCON)OCCCN)c(C)c2c1OC(C)(C)CC2`: the TGI was 29.1 µM in the experiment on SK-MEL-2 melanoma; 28.7 µM with OVCAR-3 ovarian; 30 µM in the experiment with ACHN renal; 22.5 µM in the experiment on LOX IMVI melanoma; 22.2 µM with HT29 colon; 41.7 µM with HS 578T breast. The TGI was 28.5 µM with SF-539 CNS; 25.7 µM in the experiment on U251 CNS; 31 µM in the experiment on NCI/ADR-RES ovarian; 17.5 µM in the experiment with DU-145 prostate; 10.3 µM in the experiment on COLO 205 colon; 29.3 µM in the experiment on BT-549 breast. Also, the TGI was 23.9 µM with OVCAR-8 ovarian; 32.2 µM with SK-MEL-28 melanoma; 16 µM with CAKI-1 renal; 32 µM with RPMI-8226 leukemia; 3.47 µM in the experiment on CCRF-CEM leukemia; 28.5 µM in the experiment on HCT-15 colon.
On to `CC1=C(C(=O)OC(C)C)C(c2ccccc2C(F)(F)F)C(C(=O)OC(CO[N+](=O)[O-])CO[N+](=O)[O-])=C(C)N1` (configuration not stated), for which the TGI in the experiment on SK-MEL-2 melanoma turned out to be 47.1 µM; in the experiment on OVCAR-3 ovarian it was 28.3 µM; in the experiment with ACHN renal it was 22.1 µM; in the experiment on LOX IMVI melanoma, 21.1 µM; in the experiment on HT29 colon it was 26.3 µM; in the experiment on HS 578T breast it was 49.8 µM. In addition, the TGI was 23.2 µM in the experiment with SF-539 CNS; 29 µM with U251 CNS; 30.6 µM in the experiment with NCI/ADR-RES ovarian; over 100 µM in the experiment on DU-145 prostate; 63.5 µM in the experiment with COLO 205 colon; 22.1 µM in the experiment on BT-549 breast. The TGI was 55.3 µM with SK-MEL-28 melanoma; 38.5 µM in the experiment on CAKI-1 renal; over 100 µM with RPMI-8226 leukemia; 11.1 µM with CCRF-CEM leukemia; 93.8 µM in the experiment on HCT-15 colon.
Turning to `C=C(C)C12CC3CC/C(=N/O)C(C1)C3(N1CCOCC1)C/C2=N/O` (configuration not stated), the TGI with SK-MEL-2 melanoma, in the experiment on OVCAR-3 ovarian, in the experiment with ACHN renal, in the experiment with LOX IMVI melanoma, with HT29 colon and in the experiment on HS 578T breast was over 100 µM throughout. Further, the TGI in the experiment on SF-539 CNS, in the experiment with U251 CNS, in the experiment on NCI/ADR-RES ovarian, with DU-145 prostate, in the experiment on COLO 205 colon and with BT-549 breast was over 100 µM throughout. Moreover, the TGI in the experiment on OVCAR-8 ovarian, in the experiment on SK-MEL-28 melanoma, in the experiment on CAKI-1 renal, with RPMI-8226 leukemia, in the experiment on CCRF-CEM leukemia and in the experiment with HCT-15 colon was over 100 µM each time.
Take `N#Cc1c(N2CCOCC2)[nH]c(=O)c(C(c2c(Cl)cccc2Cl)c2c(O)c(C#N)c(N3CCOCC3)[nH]c2=O)c1O`: the TGI with SK-MEL-2 melanoma was 39.5 µM; with OVCAR-3 ovarian, 30.4 µM; in the experiment with ACHN renal, 29.6 µM; with LOX IMVI melanoma, 25.6 µM; in the experiment on HT29 colon it was 28.9 µM; in the experiment with HS 578T breast it was 58.1 µM. Further, the TGI in the experiment on SF-539 CNS was 34.9 µM; in the experiment on U251 CNS, 30.4 µM; with NCI/ADR-RES ovarian it was over 100 µM; in the experiment with DU-145 prostate it was 69.2 µM; with COLO 205 colon, 26.7 µM; in the experiment with BT-549 breast it was 32.8 µM. The TGI was determined as 34.1 µM in the experiment on OVCAR-8 ovarian; 32.9 µM with SK-MEL-28 melanoma; 33.2 µM with CAKI-1 renal; 60.8 µM in the experiment on RPMI-8226 leukemia; 66.8 µM with CCRF-CEM leukemia; 28.2 µM in the experiment with HCT-15 colon.
Turning to `COc1cc2c(cc1OC)C(=O)N(NC1=NCCN1)C2=O`, the TGI in the experiment with SK-MEL-2 melanoma, in the experiment with OVCAR-3 ovarian, with ACHN renal, in the experiment with LOX IMVI melanoma, in the experiment on HT29 colon and with HS 578T breast was over 100 µM each time. Also, the TGI in the experiment on SF-539 CNS, in the experiment with U251 CNS, in the experiment on NCI/ADR-RES ovarian, in the experiment on DU-145 prostate, in the experiment with COLO 205 colon and with BT-549 breast was over 100 µM each time. In addition, the TGI with OVCAR-8 ovarian, in the experiment on SK-MEL-28 melanoma, in the experiment with CAKI-1 renal, in the experiment on RPMI-8226 leukemia, with CCRF-CEM leukemia and in the experiment with HCT-15 colon was over 100 µM in each case.
Consider `COc1ccccc1CNC(=O)[C@H](Cc1ccc(O)cn1)NC(C)=O`, for which the TGI in the experiment on SK-MEL-2 melanoma, in the experiment on OVCAR-3 ovarian, with ACHN renal, with LOX IMVI melanoma, in the experiment on HT29 colon and with HS 578T breast was over 100 µM each time. Further, the TGI with SF-539 CNS, with U251 CNS, with NCI/ADR-RES ovarian, in the experiment with DU-145 prostate, with COLO 205 colon and in the experiment with BT-549 breast was over 100 µM throughout. The TGI with SK-MEL-28 melanoma, in the experiment with CAKI-1 renal, with RPMI-8226 leukemia, in the experiment with CCRF-CEM leukemia and in the experiment with HCT-15 colon was over 100 µM each time.
